Laboratory results published in US12643910B2, “Substituted pyrazolo[3,4-b]pyridines as ectonucleotide pyrophosphatase/phosphodiesterase 1 (ENPP1) modulators” (SANFORD BURNHAM PREBYS MEDICAL DISCOVERY INSTITUTE, priority 2019, dated 2026).

Tests used:
[1] = biological target: T1, ENPP3 (Homo sapiens, UniProt O14638); experiment: ENPP3 Km ATP assay; type: biochemical; conditions: ATP at Km
T1 sequence (O14638 1-875): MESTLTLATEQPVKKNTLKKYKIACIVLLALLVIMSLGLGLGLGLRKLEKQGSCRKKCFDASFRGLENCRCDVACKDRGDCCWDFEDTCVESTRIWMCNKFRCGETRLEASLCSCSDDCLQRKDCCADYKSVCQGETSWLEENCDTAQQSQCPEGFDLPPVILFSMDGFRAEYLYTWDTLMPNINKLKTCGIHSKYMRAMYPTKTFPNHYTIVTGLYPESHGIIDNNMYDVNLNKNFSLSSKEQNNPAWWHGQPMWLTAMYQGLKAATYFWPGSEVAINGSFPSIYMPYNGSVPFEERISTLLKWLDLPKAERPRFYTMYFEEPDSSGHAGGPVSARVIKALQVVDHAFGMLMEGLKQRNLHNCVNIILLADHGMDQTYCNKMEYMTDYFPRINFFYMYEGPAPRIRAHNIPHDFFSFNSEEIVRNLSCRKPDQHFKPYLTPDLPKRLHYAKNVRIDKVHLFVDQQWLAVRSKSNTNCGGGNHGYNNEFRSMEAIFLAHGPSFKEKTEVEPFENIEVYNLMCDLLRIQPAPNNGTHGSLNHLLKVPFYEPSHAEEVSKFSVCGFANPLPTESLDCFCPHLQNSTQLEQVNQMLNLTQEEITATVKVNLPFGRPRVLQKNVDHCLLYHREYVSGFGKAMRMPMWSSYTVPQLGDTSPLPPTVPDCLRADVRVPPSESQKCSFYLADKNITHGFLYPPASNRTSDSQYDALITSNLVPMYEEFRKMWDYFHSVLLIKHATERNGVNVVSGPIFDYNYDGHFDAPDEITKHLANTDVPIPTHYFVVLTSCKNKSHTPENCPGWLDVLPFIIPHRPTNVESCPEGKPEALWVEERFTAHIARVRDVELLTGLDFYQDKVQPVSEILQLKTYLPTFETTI

[2] = biological target: T2, human ENPP1 (Homo sapiens, UniProt P22413); experiment: ENPP1 assay with ATP substrate (Transcreener AMP2/GMP2 TR-FRET); type: biochemical; conditions: 1 hour at room temperature
T2 construct: made in house
T2 sequence (P22413 1-925): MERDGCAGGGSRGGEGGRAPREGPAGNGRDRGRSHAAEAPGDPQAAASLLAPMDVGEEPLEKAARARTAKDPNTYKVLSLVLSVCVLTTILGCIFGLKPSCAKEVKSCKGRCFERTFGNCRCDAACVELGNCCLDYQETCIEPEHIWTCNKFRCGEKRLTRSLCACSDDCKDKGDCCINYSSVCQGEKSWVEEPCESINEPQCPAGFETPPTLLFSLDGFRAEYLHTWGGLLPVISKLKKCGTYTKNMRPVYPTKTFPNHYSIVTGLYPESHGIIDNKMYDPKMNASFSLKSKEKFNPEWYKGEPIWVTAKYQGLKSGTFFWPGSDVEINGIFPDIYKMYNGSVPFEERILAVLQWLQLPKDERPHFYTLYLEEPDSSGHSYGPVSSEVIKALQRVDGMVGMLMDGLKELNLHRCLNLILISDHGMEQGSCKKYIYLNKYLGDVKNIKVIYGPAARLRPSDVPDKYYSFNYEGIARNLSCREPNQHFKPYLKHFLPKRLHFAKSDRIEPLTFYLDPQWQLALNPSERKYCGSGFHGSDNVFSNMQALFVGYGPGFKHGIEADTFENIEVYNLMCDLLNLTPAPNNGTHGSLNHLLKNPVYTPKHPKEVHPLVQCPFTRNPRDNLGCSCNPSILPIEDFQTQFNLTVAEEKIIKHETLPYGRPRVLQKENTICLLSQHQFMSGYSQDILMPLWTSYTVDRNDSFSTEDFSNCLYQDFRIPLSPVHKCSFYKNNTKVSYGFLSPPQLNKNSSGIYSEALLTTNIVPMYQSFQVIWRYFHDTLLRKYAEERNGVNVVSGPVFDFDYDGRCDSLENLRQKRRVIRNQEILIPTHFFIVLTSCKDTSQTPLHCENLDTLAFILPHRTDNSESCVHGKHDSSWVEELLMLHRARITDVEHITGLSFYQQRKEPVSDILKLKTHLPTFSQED
How it was run: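 5′-AMP from ATP hydrolysis (300 nM ATP stock added; enzyme added as 8.5 μM stock) detected by competitive TR-FRET. Buffer: 50 mM Tris pH 7.5, 1 mM TCEP, 2 mM MgCl2, 0.005% Tween 20, 1% DMSO. Reaction 1 h at room temperature, EDTA stop. IC50 from 2-parameter variable-slope fit.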

Row | SMILES | IC50 [1] [µM] | IC50 [2] [µM]
1 | Cn1ncc2c(NCc3ccc(S(N)(=O)=O)cc3)nc(Cl)nc21 [Example 2.92, 4-((6-Chloro-1-methyl-1H-pyrazolo[3,4-d]pyrimidin-4-yl)aminomethyl)-benzenesulfonamide] | 0.1 to 1 | < 0.1
2 | CCNc1nc(NCc2ccc(S(N)(=O)=O)cc2F)c2cnn(C)c2n1 [Example 2.141, 4-(((6-(Ethylamino)-1-methyl-1H-pyrazolo[3,4-d]pyrimidin-4-yl)amino)methyl)-3-fluorobenzenesulfonamide] | 0.1 to 1 | 0.1 to 1
3 | Cc1cccc(CCCNC2CCN(c3ncnc4c(C)csc34)CC2)c1 [Example 3.17, 1-(7-Methylthieno[3,2-d]pyrimidin-4-yl)-N-(3-(m-tolyl)propyl)piperidin-4-amine] | 1 to 20 | 0.1 to 1
4 | Cn1ncc2c(NCc3ccc(S(N)(=O)=O)cc3)nc(OCC(F)(F)F)nc21 [Example 2.99, 4-((6-(2,2,2-Trifluoroethoxy)-1-methyl-1H-pyrazolo[3,4-d]pyrimidin-4-yl)aminomethyl)-benzenesulfonamide] | 0.1 to 1 | 0.1 to 1
5 | Cc1csc2c(N3CCC(NCCCc4ccncc4)CC3)nc(N3CCN(C)CC3)nc12 [Example 3.53, 1-(7-Methyl-2-(4-methylpiperazin-1-yl)thieno[3,2-d]pyrimidin-4-yl)-N-(3-(pyridin-4-yl)propyl)piperidin-4-amine] | > 20 | > 20
6 | COc1ccc(CCC(=O)NC2CCN(c3ncnc4c(C)csc34)CC2)cc1 [Example 3.31, 3-(4-Methoxyphenyl)-N-(1-(7-methylthieno[3,2-d]pyrimidin-4-yl)piperidin-4-yl)propanamide] | > 20 | > 20
7 | CCN(CC)c1cc(NCc2ccc(S(N)(=O)=O)cc2)c2cnn(C)c2n1 [Example 2.79, 4-(((6-(Diethylamino)-1-methyl-1H-pyrazolo[3,4-b]pyridin-4-yl)amino)methyl)-benzenesulfonamide] | 1 to 20 | > 20
8 | NS(=O)(=O)c1ccc(CNc2nc(Cl)nc3c2cnn3CC(F)(F)F)cc1 [Example 2.86, 4-((6-Chloro-1-(2,2,2-trifluoroethyl)-1H-pyrazolo[3,4-d]pyrimidin-4-yl)aminomethyl)-benzenesulfonamide] | 1 to 20 | 1 to 20
9 | Cc1cc(CNc2nc(-c3ccccn3)nc3scc(-c4ccccc4)c23)ccc1S(N)(=O)=O [Example 1.19, 2-Methyl-4-(((5-phenyl-2-(pyridin-2-yl)thieno[2,3-d]pyrimidin-4-yl)amino)methyl)-benzenesulfonamide] | 0.1 to 1 | < 0.1
10 | Cn1ncc2c(NCc3ccc(S(N)(=O)=O)nc3)ncnc21 [Example 2.52, 5-(((1-Methyl-1H-pyrazolo[3,4-d]pyrimidin-4-yl)amino)methyl)pyridine-2-sulfonamide] | 1 to 20 | < 0.1
11 | Cc1nc(NCc2ccc(S(N)(=O)=O)cc2)c2c(Br)nn(C)c2n1 [Example 2.89, 4-((3-Bromo-1,6-dimethyl-1H-pyrazolo[3,4-d]pyrimidin-4-yl)aminomethyl)-benzenesulfonamide] | < 0.1 | < 0.1
12 | COc1cc(CCCNC2CCN(c3ncnc4c(C)csc34)CC2)ccn1 [Example 3.51, N-(3-(2-Methoxypyridin-4-yl)propyl)-1-(7-methylthieno[3,2-d]pyrimidin-4-yl)piperidin-4-amine] | > 20 | 0.1 to 1
13 | Cn1ncc2c(NCc3ccc(S(N)(=O)=O)c(C(F)(F)F)c3)ccnc21 [Example 2.62, 4-(((1-Methyl-1H-pyrazolo[3,4-b]pyridin-4-yl)amino)methyl)-2-(trifluoromethyl)-benzenesulfonamide] | 0.1 to 1 | < 0.1
14 | CCN(CCO)c1nc(NCc2ccc(S(N)(=O)=O)cc2)c2c(-c3ccccc3)csc2n1 [Example 1.52, 4-((2-(N-Ethyl-N-(2-hydroxyethyl)amino)-5-phenylthieno[2,3-d]pyrimidin-4-yl)aminomethyl)-benzenesulfonamide] | 0.1 to 1 | < 0.1
15 | Cc1csc2c(N3CCC(NCc4ccccc4)CC3)ncnc12 [Example 3.0, N-Benzyl-1-(7-methylthieno[3,2-d]pyrimidin-4-yl)piperidin-4-amine] | > 20 | 0.1 to 1
16 | Cc1csc2c(N3CCC(NC(=O)COc4ccc(F)cc4)CC3)ncnc12 [Example 3.22, 2-(4-Fluorophenoxy)-N-(1-(7-methylthieno[3,2-d]pyrimidin-4-yl)piperidin-4-yl)acetamide] | > 20 | 1 to 20
17 | COc1cc(CNc2ncnc3c2cnn3C)ccc1S(N)(=O)=O [Example 2.42, 2-Methoxy-4-(((1-methyl-1H-pyrazolo[34-d]pyrimidin-4-yl)amino)methyl)-benzenesulfonamide] | > 20 | > 20
18 | Cc1ccccc1CCC(=O)NC1CCN(c2ncnc3c(C)csc23)CC1 [Example 3.14, N-(1-(7-Methylthieno[3,2-d]pyrimidin-4-yl)piperidin-4-yl)-3-(o-tolyl)propanamide] | > 20 | > 20
19 | Cc1csc2c(N3CCC(NCCCc4ccncc4)CC3)ncnc12 [Example 3.1, 1-(7-Methylthieno[3,2-d]pyrimidin-4-yl)-N-(3-(pyridin-4-yl)propyl)piperidin-4-amine] | > 20 | 0.1 to 1
20 | N#Cc1ccc(CNc2nc(-c3ccccn3)nc3scc(-c4ccccc4)c23)cc1 [Example 1.11, 4-[(5-Phenyl-2-pyridin-2-yl-thieno[2,3-d]pyrimidin-4-ylamino)-methyl]-benzonitrile] | > 20 | > 20
21 | Cc1ccccc1CCCNC1CCN(c2ncnc3c(C)csc23)CC1 [Example 3.16, 1-(7-Methylthieno[3,2-d]pyrimidin-4-yl)-N-(3-(o-tolyl)propyl)piperidin-4-amine] | > 20 | 0.1 to 1
22 | Cn1ncc2c(NCc3ccc(S(N)(=O)=O)cc3)nc(C(F)(F)F)nc21 [Example 2.133, 4-((1-Methyl-6-trifluoromethyl-1H-pyrazolo[3,4-d]pyrimidin-4-yl)aminomethyl)-benzenesulfonamide] | 1 to 20 | 1 to 20
23 | Cn1ncc2c(NCc3ccc(S(N)(=O)=O)cc3)nc(NCc3ccccc3)nc21 [Example 2.48, 4-(((6-(Benzylamino)-1-methyl-1H-pyrazolo[3,4-d]pyrimidin-4-yl)amino)methyl)-benzenesulfonamide] | 0.1 to 1 | 0.1 to 1
24 | Cc1nc(NCc2ccc(S(N)(=O)=O)cc2)c2c(C3=CCCC3)nn(C)c2n1 [Example 2.127, 4-((3-(1-Cyclopenten-1-yl)-1,6-dimethyl-1H-pyrazolo[3,4-d]pyrimidin-4-yl)aminomethyl)benzenesulfonamide] | 0.1 to 1 | 1 to 20
25 | CCOc1nc(NCc2ccc(S(N)(=O)=O)cc2)c2c(Br)nn(C)c2n1 [Example 2.97, 4-((3-Bromo-6-ethoxy-1-methyl-1H-pyrazolo[3,4-d]pyrimidin-4-yl)aminomethyl)-benzenesulfonamide] | < 0.1 | < 0.1
